Results on 2 molecules are retold here after US10702527B2, “Combination therapy of transcription inhibitors and kinase inhibitors” (Dana-Farber Cancer Institute, Inc., priority 2015, dated 2020).

In test [1] the test system is signaling pathways in PC9 cells. Description: Western blot / immunoblot of signaling pathways in PC9 cells. Format: cell-based. Particulars: 24 hours, erlotinib 1 μM, THZ1 100 nM, alone or combined. Here is the method: Cells were lysed in RIPA buffer (Roche) containing protease inhibitors (Roche) and Phosphatase Inhibitor Cocktails I and II (CalBioChem). Protein concentrations were determined using a Bradford assay (Bio-Rad). Proteins were separated by SDS gel electrophoresis using NuPAGE 4-12% Bis-Tris gels (Life Technologies) in MOPS buffer. Resolved protein was transferred to nitrocellulose membranes, blocked in 10% milk and probed with primary antibodies recognizing EGFR (2232S), p-EGFR (2234S), FGFR3 (4574S), p-FGFR (3471S), HER2/ERBB2 (2165), p-ERBB2 (2243S), STAT1 (9172), p-STAT1 (9167), STAT3 (4904S), p-STAT3 (9145S), AKT (9272S), p-AKT (4060P), ERK (4695S), p-ERK (4370S), FRA1 (5281S), CDK12 (11973) (all from Cell Signaling Technology), CDK7 (sc-723, Santa Cruz), actin (A5441, Sigma-Aldrich) and vinculin (V9131, Sigma-Aldrich) in 5% milk or 3% bovine serum albumin as recommended by the manufacturer. After incubation with the appropriate secondary antibody (Pierce anti-mouse IgG/IgM (31444, Thermo Scientific) and anti-rabbit IgG (31460, Thermo Scientific)), blots were imaged on film.
Western blots were used to characterize the signaling pathways in selected cell lines. The assays were performed at 24 hours under the following conditions: untreated, treated with 1 μM erlotinib, treated with 100 nM THZ1, or treated with a combination of erlotinib and THZ1, in PC9 and RT112 cells. These doses were also used in the colony formation assays and the RNAseq and ChIPseq experiments. […] However, it could be blocking the activation of downstream STAT3 targets. […] FGFR is known to be a bypass mechanism in PC9, but this was not seen with THZ1 treatment or with the combination treatment. […] This is unexpected, given that THZ1 should block CDK7-mediated RNAPII phosphorylation. This may be due to the dose or the time point assayed.
For orientation: Immunoblotting shows a protein as a band on a membrane.

In another test the test system is IL-6. Description: IL-6 in PC9 cell culture supernatants (Luminex cytokine assay, ELISA). It is filed as cell-based. Particulars: PC9 cells; erlotinib 1 μM, THZ1 100 nM; 24 and 72 hours. The method, then: A Luminex Multiplex Custom Cytokine assay was used to assay cytokines in RT112 and PC9 cell culture supernatants treated with vehicle, 1 μM BGJ398 or erlotinib respectively, 100 nM THZ1, or THZ1 in combination with BGJ398 or erlotinib, at 24 and 72 hours. Cytokines assayed for were: CCL2/MCP-1, CCL5/RANTES, CXLC5, IL-1 alpha and beta, IL-2, IL-4, IL-5, IL-6, IL-8, IL-10, IL-17a, GM-CSF, TNF-alpha, VEGF, INF-gamma. IL-6 was also assayed in cell culture supernatants using the Quantikine IL-6 ELISA kit (D6050, R&D Systems) as per the manufacturer's protocol.

For test [2], the system named is H3K27Ac enhancer signal in PC9 cells. As to the kind of experiment: H3K27Ac ChIP-Seq in PC9 cells. The note with it: seven days of treatment, vs DMSO. It is filed as cell-based, human.
Experimental: RT112 and PC9 cells treated for seven days with vehicle, 1 μM BGJ398 and erlotinib (respectively), 100 nM THZ1, or BGJ398/erlotinib in combination with THZ1. H3K27Ac ChIP-Seq was performed using Abcam antibody (cat # AB4729, lot # GR183922-1) as previously described,^8 with minor modifications (cells were crosslinked for 20 min, Dynal magnetic beads (Sigma) were bound with 10 μg of the indicated antibody).
All ChIP-Seq data sets were aligned using bowtie 1.0.1 to build NCBI36/hg19 of the human genome with -p 4—best -k 2 -m 2—sam -1 40. Wiggle files for gene tracks were created using Macs 1.4.2 with options -w -S -space=50 to count reads in 50 bp bins.
Regions enriched in H3K27Ac were identified using SICER^51 with corresponding input DNA control, and parameters -t 1 (max 1 read per position), -w 200 (window size 200), -i 150 (fragment size), -g 200 (gap size 200; 1 window), -t 0.74 (interrogable genome fraction), -e 200 (e-value), -p 1e-9 (significance p value cutoff). […]
Density of H3K27Ac ChIP-Seq signal (FIG. 51F) was calculated using bamToGFF (github.com/BradnerLab/pipeline). Islands of H3K27Ac identified in RT112 BGJ398-treated cells or PC9 erlotinib-treated cells were treated as one bin (-m 1), reads were extended to be 200 bp (default) and the reads-per-million (-r) normalized density (-d) of reads was calculated therein.
Test [3] concerns gene expression in PC9 cells. Description: RNA-Seq gene expression in PC9 cells.
Experimental: RNA was isolated from untreated RT112 cells and RT112 cells treated with 1 μM BGJ398, 100 nM THZ1, or combination treatment with THZ1 plus BGJ398, and similarly, untreated PC9 cells and PC9 cells treated with 1 μM erlotinib, 100 nM THZ1, or THZ1 plus erlotinib. Both cell lines were harvested at two time-points: following one day or seven days of treatment. Cell number was determined and total RNA was isolated using the RNeasy micro kit (Qiagen). Ambion® ERCC RNA Spike-In Mix (Life technology) was added to total RNA. cDNA libraries were prepared using the NEBNext® Ultra™ RNA Library Prep Kit for Illumina (New England Biolabs) according to the manufacturer's instructions. Library integrity was assessed on an Agilent 2100 Bioanalyzer (Agilent). Sequencing was performed on the Hiseq 2000 platform (Illumina) to a minimum depth of 30 million reads per sample.
QC-passed reads were aligned to the human reference genome (hg19) using PRADA.^46 Transcript per million (TPM) values were determined using RSEM.^47 TPM values were normalized with the voom transformation.^48 Expression changes for each gene in treated cells compared to untreated controls was determined using the limma package^49 as log 2-transformed fold change and a multiple-testing adjusted p-value. Heatmap visualization was performed using R. Log 2-transformed fold changes were not scaled and were colored on a blue-red scale.
Differentially expressed genes (defined as log 2-fold change value greater than 1.5 or less than −1.5, and p-value less than 0.01) were input into Ingenuity Pathway Analysis (www.ingenuity.com), to identify a) enriched pathways, 2) upstream regulators, andd 3) downstream effectors. […] We considered an activation z-score of greater than [2] to be activated, and less than [−2] to be inhibited. Gene ontology term (GO-term) enrichment analysis was performed using the Database for Annotation, Visualization and Integrated Discovery (DAVID) v6.7 (david.abcc.ncifcrf.gov/).
The next test has as its system PC9 cells. As to the kind of experiment: Apoptosis/cell death analysis (Annexin V/PI flow cytometry) in PC9 cells. The note with it: 48 hours; erlotinib 1 μM; compared to PC9 cells with control RNA guide. Format: cell-based. Here is the method: 100,000 cells were seeded in 6-well plates, allowed to adhere overnight, and then incubated with media containing vehicle or drug as indicated for 24 or 48 hours. Cell death was quantified using the Alexa Fluor 488 Annexin V/Dead Cell Apoptosis kit for flow cytometry (Invitrogen), according to the manufacturer's protocol. All conditions were assayed in triplicate. Data were acquired using a BD LSRFortessa X-20 (BD Biosciences), and analyzed in FlowJo.
(In general: Flow cytometry measures light scatter and fluorescence of single cells or particles in a stream.)

Test [4] has as its system PC9 cells (EGFR-dependent NSCLC). Description: Colony formation assay in PC9 cells. The note with it: 4 weeks, compared to THZ1 (FIG. 55B). It is filed as cell-based.
The subject of another test is HER-2 dependent models. Particulars: cited from earlier work.
Test [5] concerns RT112 bladder carcinoma cells (FGFR3-dependent). Description: Colony formation assay in RT112 cells. Format: cell-based, human. The text has this: Media (and drug) were replaced weekly.

SMILES strings stand for the structures. Entries after “also recorded” stand apart in the source; their conditions may differ.

As for `C#Cc1cccc(Nc2ncnc3cc(OCCOC)c(OCCOC)cc23)c1` [erlotinib], in test [1], the FGFR activation entry was “is activated; also recorded: activation of FGFR was also observed” and the “p-STAT3 (STAT3 phosphorylation/activation)” value is listed as “increases”. The “IL-6 levels in cell culture supernatants” value in the test on IL-6 is on record as “significantly increased”. In addition, in test [2], the “H3K27Ac ChIP-Seq signal at enhancers” value was “significant increase in H3K27Ac signal”. In addition, in test [3] (erlotinib 1 μM, THZ1 100 nM, one or seven days), the “gene expression (transcriptional programs) by RNAseq” value is “transcriptionally distinct form the parental population; also recorded: up-regulated the expression of genes involved in pro-survival programs”. Moreover, the “gene expression of the top 200 up-regulated genes with erlotinib treatment” value in test [3] (log2-normalized FPKM, two-tailed t-test) was “significant increase in gene expression”. For the same molecule, the “sensitivity to erlotinib (cell death) of CDK7 and CDK12-deficient PC9 cells” value with PC9 cells is “enhanced sensitivity to erlotinib”.
Consider `Cc1sc2c(c1C)C(c1ccc(Cl)cc1)=N[C@@H](CC(=O)OC(C)(C)C)c1nnc(C)n1-2` [JQ1], for which the “enhancement of sensitivity to erlotinib (colony formation)” value in test [4] is “did not enhance sensitivity to erlotinib”. The sensitivity to lapatinib result with HER-2 dependent models is recorded as “enhance sensitivity to lapatinib”. The “enhancement of sensitivity to BGJ398 (colony formation)” value in test [5] (4 weeks, compared to THZ1 (FIG. 55D)) is reported as “did enhance sensitivity to BGJ398 in RT112, although less so than THZ1”. Further, the “colony formation, transcription inhibitor alone or in combination with BGJ398” value in test [5] (one week, 24-well plate (FIG. 35)) is on record as “modest results, even in combination”.
